In US10363282B2, “Analogs of C5a and methods of using same” (priority 2010, dated 2019):
Like-named read-outs stand apart in the source and are kept apart here. Where no end group is shown, it is not given here. [ ]: non-standard residue; d: D form. NMeL = CN[C@@H](CC(C)C)C(=O)O

Tests used:
[1] = test system: E. coli strain DH5α; assay: E. coli growth (OD600) with peptide; assay type: cell-based; details: for effect on log phase growth (OD600): added at OD600 0.2, 500 μg/m, LB or TSB
Protocol: E. coli strain DH5α was grown overnight in mls of Lennox Broth (LB). This culture was diluted to an optical density at […] (OD600) of 0.06. The diluted E.coli was dispensed in 1.5 ml aliquots into separate tubes and 1.5 ml of EP67 (YSFKDMP(MeL)aR (SEQ ID NO: 4)), EP54 (YSFKPMPLaR (SEQ ID NO: 3)), scrambled-EP67 (s-EP67) or scrambled-EP54 in LB was added to obtain a final concentration of 500 μg/ml with the E. coli at an OD600 of 0.03. A culture in LB was also prepared. The cultures were incubated at 37° C. with shaking and the OD600 readings recorded hourly. In order to determine whether the growth media altered the effectiveness of EP67, LB was replaced with an alternative growth media, Tryptic Soy Broth (TSB).
To test the efficacy of EP67 on bacteria growing in log phase, overnight cultures of DH5α were grown in either LB or TSB. The cultures were diluted to an OD600 of 0.03 and incubated at 37° C. with shaking until they reached an OD600 of 0.2 at which time either EP67 or s-EP67, in the appropriate media, were added to a final concentration of 500 μg/m. DH5α control cultures (absence of additives) were also prepared. The tubes were further shaken at 37° C. and OD600 readings were taken hourly.

[2] = test system: MRSA; assay type: in vivo, C57B1/6 mice; details: for lesion size in CD88 −/− background vs EP67-treated CD88 +/+ background: mouse, in vivo
[3] = test system: neutrophils; assay: In vivo neutrophil chemotaxis: histopathology and myeloperoxidase assay; parameters: species or system CD1 mice; details: for histopathologic analysis of skin tissue: 250 μg s.c., no bacteria
Protocol: Neutrophil chemotaxis and myeloperoxidase assay. Neutrophil recruitment at the site of injection by EP67 or sEP67 was examined using an in vivo chemotaxis assay as described previously (van Sorge N M, et al., PloS One 2008; 3:e2964). Briefly, 250 μg EP67 or sEP67 were injected subcutaneously into the right flank of CD1 mice. The injection was repeated after 24 h. Mice were euthanized 4 h after the second injection and the site of injection excised for histopathoglogic analysis or determination of myeloperoxidase (MPO) activity as described previously (van Sorge N M, et al., supra). The assay was carried out two times and the samples analyzed in duplicate.
Neutrophil influx is essential for the protective action of EP67. […] Neutrophil recruitment to the site of EP67 injection was further analyzed using an in vivo neutrophil recruitment assay as described previously (van Sorge N M, et al., supra; and Banerjee A, et al., Cell Microbiol; 12:1576-1588). Neutrophil migration was assessed in skin homogenates following injection of EP67 or sEP67 by determining the level of neutrophil enzyme myeloperoxidase (MPO), which serves as an effective indication of neutrophil infiltration (Banerjee A, et al., supra; and Bradley P P, et al., J Invest Dermatol 1982; 78:206-209). This method compares well with other in vivo assays of neutrophil chemotaxis (van Sorge N M, et al., supra).

[4] = test system: bronchoalveolar lavage (BAL) cells; assay: BAL cell response of aged mice to EP67 insufflation; assay type: in vivo
[5] = test system: S. aureus (Newman strain); assay: S. aureus in vitro EP67 killing curves; assay type: cell-based; details: dilution series, LB; higher concentrations
Protocol: 150 μl of LB growth medium plus 50 μl of EP67 or s-EP67 were added to individual culture wells resulting in a dilution series of 6 wells per EP67 or s-EP67. A “no EP67” well (control) was included at the end of each series. S. aureus (Newman strain) was allowed to grow to an OD600 of 0.4 and each well of the dilution series was inoculated with 5μl of the culture. Two wells with no bacterial inoculums were included to serve as controls. Plates were incubated at 37° C. with agitation and the OD600 of each well was measured hourly using a plate reader.

[6] = test system: influenza A/PR/8; assay type: in vivo, mice; details: uninfected animals treated with EP67, one day later
[7] = test system: bronchoalveolar lavage (BAL) cells; assay: BAL cell FACS analysis after EP67 insufflation; assay type: in vivo, mice
Protocol: In short, EP67 (3 mg/kg) was delivered directly to the lungs of mice through insufflation (IN). […] Lungs were lavaged with PBS to isolate the bronchoalveolar lavage (BAL) cells for staining and FACS analysis.

[8] = test system: influenza A/A/PR/8; assay: Influenza-induced weight loss after one EP67 treatment; assay type: in vivo, mice
[9] = test system: GBS; assay: Group B Streptococcus (GBS) meningitis model; assay type: in vivo, CD1 mice; details: 250 ug i.p. at day −1, 0, 1 and 2; brain and blood cfu 96 hours post-injection
Protocol: 8-week old female CD1 mice were treated with 250 ug of EP67 or s-EP67 at day −1, 0, 1 and 2 via i.p. injection. GBS was injected via i.p. at 1×10^9 cfu/mouse. Brains and blood were harvested from each mouse 96 hours post-injection. The tissue was homogenized, diluted and plated to determine the cfu/g bacteria.

[10] = test system: influenza; assay: ELISA for anti-influenza antibodies in serum; assay type: in vivo, mice; details: each EP67 treatment group
[11] = test system: S. aureus (USA300 LAC strain) biofilm; assay: S. aureus catheter biofilm model; details: Day 3, relative to sEP67 and PBS vehicle
Protocol: A S. aureus (USA300 LAC strain) biofilm was established on a hollow catheter (1 cm in length) inserted subcutaneously into C57BL/6 mice by introducing 1000 CFUs of S. aureus into the catheter lumen. At the time of infection, one dose of EP67 (200 μg/ml dissolved in PBS) was introduced. At both 24 and 48 h following infection, a series of four injections of EP67 were made; two into each open end of the catheter (20 μl each) and two along the top and bottom at points perpendicular to the middle of the catheter (50 μl each). Samples of the biofilm and surrounding tissue were obtained at Day 3 and assessed for the presence of viable bacteria by standard culture methods.

[12] = EP67 3 mg/kg insufflation, one day later

Substance: (MeL)RMYKPaFDS ([NMeL]RMYKP[dA]FDS) [sEP67, reference compound]
- effect on log phase growth (OD600) [1]: little or no effect on growth
- lesion size in CD88 −/− background vs EP67-treated CD88 +/+ background [2]: significantly larger
- histopathologic analysis of skin tissue [3]: normal pathology

Substance: YSFKDMP(MeL)aR (YSFKDMP[NMeL][dA]R; listed as Homo sapiens) [EP67]
- exMacs and neutrophils in alveolar space [4]: a large population of exMAcs and neutrophils into the alveolar space
- effect on bacterial growth (OD600) [5]: dose dependent inhibitory effect
- influx of innate effectors (exMacs, neutrophils) in BAL [6]: displayed this influx of innate effectors
- effect on bacterial growth (OD600) ([1]; 500 μg/ml, start OD600 0.03, LB or TSB): direct bacteriostatic/bacteriocidal effects
- effect on log phase growth (OD600) [1]: significantly reduce and/or stop log phase growth
- CD11b+CD11c− cells (GR-1+ neutrophils) in alveolar space [7, 12]: a large population of CD11b^+CD11c^− cells appeared in the alveolar space
- exudate macrophages (exMac) in BAL cells [7, 12]: appearance of cells bearing the CD11b^+CD11c^+ phenotype of exudate macrophages (exMac)
- dose dependence of EP67-induced changes in BAL populations ([7]; mouse, in vivo): strict dose-response
- time course of the EP67 response in BAL cells: neutrophils ([7]; seven days post EP67 administration): the neutrophils were largely lost
- lesion size ([2]; CD88 −/− animals, EP67 vs sEP67): no difference in lesion size
- lesion size in CD88 −/− background vs EP67-treated CD88 +/+ background [2]: significantly larger
- lesion size ([2]; wild-type CD88 +/+ animals, EP67 compared to sEP67): significantly smaller lesions
- protection from influenza-induced morbidity ([8]; treated on day 2 after infection): not associated with any protection
- protection from influenza-induced morbidity ([8]; treated on day 3 after infection): not associated with any protection
- influenza-induced weight loss ([8]; treated one day after infection): significant protection from influenza-induced weight loss
- influenza-induced weight loss ([8]; treated the day before infection, vs non-treated animals): lost significantly less weight
- influenza-induced weight loss ([8]; treated the day of infection, vs non-treated animals): lost significantly less weight
- protection against GBS infection in the central nervous system [9]: protects against GBS infections in the central nervous system
- myeloperoxidase (MPO) levels in skin homogenates (accumulating neutrophils) ([3]; 250 μg s.c. twice, 4 h after second injection, compared to sEP67): significantly higher
- histopathologic analysis of skin tissue [3]: massive influx of inflammatory cells, including neutrophils
- anti-influenza Abs in serum [10]: high concentration of anti-influenza Abs
- bacterial burdens in surrounding tissue [11]: significant decrease in bacterial burdens
- bacterial burdens within the biofilm [11]: significant decrease in bacterial burdens
